US5428038A, “Benzopyranones, a method for producing them and uses therefor” (Dr. Willmar Schwabe GmbH & Co., priority 1991, dated 1995)

Experiments:
NMDA-induced death = test: NMDA test (25 mg/kg i.v.), prevention of NMDA-induced death (neuroprotective efficacy); format: in vivo, male NMRI mice; details: Mus musculus, po, NMDA 25 mg/kg i.v.; for ED50: 1 h, dose protecting 50% of animals against NMDA-induced death one hour after application; for responders at 100 mg/kg: 100 mg/kg p.o. 1 h before test; for responders at 25 mg/kg: 25 mg/kg p.o. 1 h before test; for responders at 5 mg/kg: 5 mg/kg p.o. 1 h before test
Protocol: In order to determine the neuroprotective and anticonvulsive activity of the compounds in accordance with the invention of the general formula I, two slightly different methods were employed as follows: […]
1. In order to determine the neuroprotective efficacy NMDA at a rate of 25 mg/kg/10 ml was administered intravenously to male NMRI mice with a body weight of 20 to 25 g. As a consequence of this application the animals suffer clonic and partly tonic convulsions, which lead to death. As a criterion for the efficacy of the investigated compounds prevention of death is used.
All animals used in the investigations had free access to food and water prior to the experiments. The test and reference substances were all administered as a suspension in 0.2% agar or water, partly by the intermediary of solution promoters such as for instance PEG-400, perorally using an esophageal probe. Control animals received the same volumes of the solvent with optional solution promoters. One hour after the application of the substance NMDA was administered intravenously and the animals observed for the occurrence of convulsions.
In table 1 the results of the tests (NMDA 25 mg i.v.) performed in accordance with method 1 are compiled with dosages of 5-100 mg of the compounds in accordance with the invention per kg of body weight as compared with known NMDA-antagonists. As a percentage efficacy the percentage of surviving animals is used.
The determination of the ED50 values was performed in accordance with the method described in Lichtfield and Wilcoxon, J. Pharmacol. exp. Therapeut. 96, 99 (1949) in each case with 4 to 5 groups of 10 animals per dosage rate.

[1] = tested on: ovalbumin-induced anaphylactic paw edema; test: Passive rat paw anaphylaxy (inhibition of edema volume; antiallergic and anti-inflammatory); format: in vivo, male Sprague-Dawley rats; details: for inhibition in vivo at 25 mg/kg: 25 mg/kg p.o. 1 h before test; for inhibition in vivo at 30 mg/kg: 30 mg/kg p.o. 1 h before test
Protocol: The determination of the antiallergic and anti-inflammatory properties of the compounds in accordance with the invention was using a passive rat paw anaphylaxy model.
Male Sprague-Dawley rats were utilized for all tests. The animals were kept under standardized environmental conditions with free access to food and water. For sensitization to the antigen 100 μl of a mouse antiserum to ovalbumin was injected sublplantarly into the left rear paw. […] The opposite paw was for control injected subplantarly only with 100 μl of the solvent (sterile physiological NaCl solution). Overnight the investigated animals were deprived of food but had water ad lib.
Per group in all tests between 6 and 8 animals were used. One hour later the anaphylactic reaction was caused by the intravenous injection of 10 mg/10 ml/kg ovalbumin in physiological NaCl solution. […] The edema volume was calculated from the difference between the values of the two paws. The antiallergic action is in this case expressed as a percentage inhibition of the edema volume of the animals in the test group as compared with control groups undergoing parallel investigation. […] The determination of the ED50 values was performed by linear regression after log transformation of the administered doses, at least three dosage rates being employed.

[2] = read-out: Protective action (percentage of surviving animals)
[3] = Rattus norvegicus, po, read-out: Protective action (percentage inhibition of edema volume)
[4] = Rattus norvegicus, po, p.o. 1 h before test, linear regression after log transformation of doses

COc1cc2oc(=O)ccc2cc1OCC(O)CN1CCC(C(O)(c2ccc(F)cc2)c2ccc(F)cc2)CC1 (racemic) [Example 25, (±)-6-{3-[4-(bis(4-fluorophenyl)hydroxymethyl)-1-piperidinyl]-2-hydroxypropoxy}-7-methoxy-2H-1-benzopyran-2-one]
ED50 (NMDA-induced death): 77 mg/kg | responders at 100 mg/kg (NMDA-induced death; [2]): 100% | inhibition in vivo at 25 mg/kg [1, 3]: 43%

COc1cc2ccc(=O)oc2cc1OCCCN1CCN(C(c2ccc(F)cc2)c2ccc(F)cc2)CC1 [Example 8, 7-{3-[4-(bis(4-fluorophenyl)methyl)-1-piperazinyl]propoxy}-6-methoxy-2H-1-benzopyran-2-one]
responders at 100 mg/kg (NMDA-induced death; [2]): 62.5% | inhibition in vivo at 25 mg/kg [1, 3]: 35%

CC(C)Oc1cc2ccc(=O)oc2cc1OCCCN1CCC(c2ccccc2)CC1 [Example 12, 6-(1-methylethoxy)-7-[3-(4-phenyl-1-piperidinyl)propoxy]-2H-1-benzopyran-2-one]
responders at 25 mg/kg (NMDA-induced death; [2]): 62.5% | inhibition in vivo at 25 mg/kg [1, 3]: 12%

COc1cc2ccc(=O)oc2cc1OCCCN1CCC(C(O)(c2ccc(F)cc2)c2ccc(F)cc2)CC1 [Example 14, 7-{3-[4-(bis(4-fluorophenyl)hydroxymethyl)-1-piperidinyl]propoxy}-6-methoxy-2H-1-benzopyran-2-one]
responders at 25 mg/kg (NMDA-induced death; [2]): 37.5% | Action remains for a period with full effect ([1]; 25 mg/kg p.o.): 24 h | inhibition in vivo at 25 mg/kg [1, 3]: 81% | ED50 [1, 4]: 2.4 mg/kg

COc1cc2oc(=O)ccc2cc1OCCCN1CCC(=C(c2ccc(F)cc2)c2ccc(F)cc2)CC1 [Example 15, 6-{3-[4-(bis(4-fluorophenyl)methylene)-1-piperidinyl]propoxy}-7-methoxy-2H-1-benzopyran-2-one]
responders at 25 mg/kg (NMDA-induced death; [2]): 50% | inhibition in vivo at 25 mg/kg [1, 3]: 60%

COc1cc2oc(=O)ccc2cc1OCCCN1CCC(C(c2ccccc2)c2ccccc2)CC1 [Example 16, 6-{3-[4-(diphenylmethyl)-1-piperidinyl]propoxy}-7-methoxy-2H-1-benzopyran-2-one]
responders at 100 mg/kg (NMDA-induced death; [2]): 75% | inhibition in vivo at 25 mg/kg [1, 3]: 60%

COc1cc2ccc(=O)oc2cc1OCCCN1CCC(C(O)(c2ccccc2)c2ccccc2)CC1 [Example 17, 7-{3-[4-(diphenylhydroxymethyl)-1-piperidinyl]-propoxy}-6-methoxy-2H-1-benzopyran-2-one]
responders at 100 mg/kg (NMDA-induced death; [2]): 37.5% | inhibition in vivo at 25 mg/kg [1, 3]: 83%

COc1cc2oc(=O)cc(C)c2cc1OCCCN1CCN(c2ccccc2)CC1 [Example 26, 7-methoxy-4-methyl-6-[3-(4-phenyl-1-piperazinyl)propoxy]-2H-1-benzopyran-2-one]
responders at 25 mg/kg (NMDA-induced death; [2]): 62.5% | inhibition in vivo at 25 mg/kg [1, 3]: 66%

COc1cccc(N2CCN(CCCOc3cc4c5c(c(=O)oc4cc3OC)CCC5)CC2)c1 [Example 55, 2,3-dihydro-7-methoxy-8-{3-[4-(3-methoxyphenyl)-1-piperazinyl]propoxy}cyclopenta[c][1]benzopyran-4(1H)-one]
ED50 (NMDA-induced death): 1.1 mg/kg | responders at 5 mg/kg (NMDA-induced death; [2]): 100%

COc1ccc(N2CCN(CCCOc3cc4c5c(c(=O)oc4cc3OC)CCC5)CC2)cc1 [Example 56, 2,3-dihydro-7-methoxy-8-{3-[4-(4-methoxyphenyl)-1-piperazinyl]propoxy}cyclopenta[c][1]benzopyran-4(1H)-one]
ED50 (NMDA-induced death): 2.6 mg/kg | responders at 5 mg/kg (NMDA-induced death; [2]): 87.5%

CCOc1ccccc1N1CCN(CCCOc2cc3c4c(c(=O)oc3cc2OC)CCC4)CC1 [Example 57, 8-{3-[4-(2-ethoxyphenyl)-1-piperazinyl]propoxy}-2,3-dihydro-7-methoxy-cyclopenta[c][1]benzopyran-4(1H)-one]
responders at 5 mg/kg (NMDA-induced death; [2]): 100%

COc1cc2oc(=O)c3c(c2cc1OCCCN1CCN(c2ccccc2Cl)CC1)CCC3 [Example 58, 8-{3-[4-(2-chlorophenyl)-1-piperazinyl]propoxy}-2,3-dihydro-7-methoxy-cyclopenta[c][1]benzopyran-4(1H)-one]
ED50 (NMDA-induced death): 1.8 mg/kg | responders at 5 mg/kg (NMDA-induced death; [2]): 100%

COc1cc2oc(=O)c3c(c2cc1OCCCN1CCN(c2ccccc2C)CC1)CCC3 [Example 59, 2,3-dihydro-7-methoxy-8-{3-[4-(2-methylphenyl)-1-piperazinyl]propoxy}cyclopenta[c][1]benzopyran-4(1H)-one]
ED50 (NMDA-induced death): 1.1 mg/kg | responders at 5 mg/kg (NMDA-induced death; [2]): 100%

COc1cc2oc(=O)c3c(c2cc1OCCCN1CCN(c2ccccc2O)CC1)CCC3 [Example 60, 2,3-dihydro-8-{3-[4-(2-hydroxyphenyl)-1-piperazinyl]propoxy}-7-methoxy-cyclopenta[c][1]benzopyran-4(1H)-one]
responders at 5 mg/kg (NMDA-induced death; [2]): 62.5%

COc1cc2oc(=O)c3c(c2cc1OCCCN1CCN(c2ccc([N+](=O)[O-])cc2)CC1)CCC3 [Example 61, 2,3-dihydro-7-methoxy-8-{3-[4-(4-nitrophenyl)-1-piperazinyl]propoxy}cyclopenta[c][1]benzopyran-4(1H)-one]
responders at 100 mg/kg (NMDA-induced death; [2]): 25%

COc1cc2oc(=O)c3c(c2cc1OCCCN1CCN(c2ccccn2)CC1)CCC3 [Example 62, 2,3-dihydro-7-methoxy-8-{3-[4-(2-pyridinyl)-1-piperazinyl]propoxy}cyclopenta[c][1]benzopyran-4(1H)-one]
responders at 25 mg/kg (NMDA-induced death; [2]): 87.5%

COc1cc2oc(=O)c3c(c2cc1OCCCN1CCN(c2ncccn2)CC1)CCC3 [Example 63, 2,3-dihydro-7-methoxy-8-{3-[4-(2-pyrimidinyl)-1-piperazinyl]propoxy}cyclopenta[c][1]benzopyran-4(1H)-one]
responders at 25 mg/kg (NMDA-induced death; [2]): 12.5%

COc1cc2oc(=O)c3c(c2cc1OCCCN1CCC(Cc2ccccc2)CC1)CCC3 [Example 64]
responders at 25 mg/kg (NMDA-induced death; [2]): 75%

COc1cc2oc(=O)c3c(c2cc1OCCCN1CCC(C(O)(c2ccc(F)cc2)c2ccc(F)cc2)CC1)CCC3 [Example 65, 8-{3-[4-(bis(4-fluorophenyl)hydroxymethyl)-1-piperidinyl]propoxy}-2,3-dihydro-7-methoxy-cyclopenta[c][1]benzopyran-4(1H)-one]
responders at 100 mg/kg (NMDA-induced death; [2]): 12.5%

COc1cc2oc(=O)c3c(c2cc1OCCCN1CCN(c2ccccc2F)CC1)CCC3 [Example 66, 8-{3-[4-(2-fluorophenyl)-1-piperazinyl]propoxy}-2,3-dihydro-7-methoxy-cyclopenta[c][1]benzopyran-4(1H)-one]
responders at 5 mg/kg (NMDA-induced death; [2]): 100%

COc1ccc(CCN2CCC(Nc3nc4ccccc4n3Cc3ccc(F)cc3)CC2)cc1 [astemizole, reference compound]
inhibition in vivo at 10 mg/kg ([1]; Rattus norvegicus, po, 10 mg/kg p.o. 1 h before test, read-out: Protective action (percentage inhibition of edema volume)): 70% | ED50 [1, 4]: 3.1 mg/kg

O=C(O)c1cc(=O)c2c(OCC(O)COc3cccc4oc(C(=O)O)cc(=O)c34)cccc2o1 [cromoglycate, reference compound]
inhibition in vivo at 2.25 mg/kg ([1]; Rattus norvegicus, 2.25 mg/kg, intravenous immediately prior to test, read-out: Protective action (percentage inhibition of edema volume)): 58% | ED50 ([1]; Rattus norvegicus, intravenous treatment immediately prior to test (footnote), head says p.o.): 1.1 mg/kg | oral effectiveness ([1]; oral): orally not effective

CN(C)CCOC(c1ccccc1)c1ccccc1 [diphenhydramine, reference compound]
inhibition in vivo at 100 mg/kg ([1]; Rattus norvegicus, po, 100 mg/kg p.o. 1 h before test, read-out: Protective action (percentage inhibition of edema volume)): 54% | ED50 [1, 4]: 73 mg/kg

CNC1(c2ccccc2Cl)CCCCC1=O (stereo not drawn) [ketamine, reference compound]
responders at 20 mg/kg (NMDA-induced death; 20 mg/kg p.o. 1 h before test, read-out: Protective action (percentage of surviving animals)): 0%

CN1CCC(=C2c3ccccc3CC(=O)c3sccc32)CC1 [ketotifen, reference compound]
inhibition in vivo at 30 mg/kg [1, 3]: 77% | ED50 [1, 4]: 5.6 mg/kg

O=c1[nH]c2ccccc2n1CCCN1CCN(C(c2ccccc2)c2ccccc2)CC1 [oxatomide, reference compound]
inhibition in vivo at 30 mg/kg [1, 3]: 75% | ED50 [1, 4]: 7.3 mg/kg

Cc1c(C)c2ccc(OCCCN3CCN(Cc4ccc(Cl)cc4)CC3)cc2oc1=O [picumast, reference compound]
inhibition in vivo at 25 mg/kg [1, 3]: -21%
